Test results from patent publication US20240293563A1, “GLP-1 RECEPTOR LIGAND MOIETY CONJUGATED OLIGONUCLEOTIDES AND USES THEREOF” (priority 2017, published 2024).
k = constrained ethyl (cEt); d = 2'-deoxy (DNA)

Tests used:
FOXO1 mRNA [1] = assay: FOXO1 mRNA in isolated islets and liver after 6 weeks repeated administration to ob/ob mice; format: in vivo, mouse; settings: male ob/ob mice; 0.1 μmol/kg once weekly for 6 weeks; 120 hrs after last dose
Method: Pancreatic islets were isolated by collagenase digestion from pancreas collected from exsanguinated 12 to 15 weeks old female C57BL/6Crl mice. Islets were maintained in tissue culture until use. Islet were dissociated into single cells by shaking in media containing a low extracellular calcium concentration. 10 to 20 intact or dissociated islets were plated on plastic Petri Dishes and treated with 10 μM of antisense oligonucleotides for approximately 24 hrs. After the treatment period cells were harvested, RNA isolated, adjusted to total RNA content, as measured by RIBOGREEN®. MALAT1 or FOXO1 mRNA levels measured by quantitative real-time PCR. […] All data was normalized to the mRNA level of the house keeping gene (RPLP0) in the same sample, measured using a primer probe set with forward sequence […] NO: 71), reverse sequence […] NO: 72) and probe sequence […] NO: 73). Male ob/ob mice (B6.V-Lepob/OlaHsd, Harlan) were assigned to five treatment groups receiving either vehicle, 0.1 μmol/kg ISIS 776102, 0.1 μmol/kg ION 913195, 0.03 ION 913193 or 1 μmol/kg ION 913193. All animals were treated once weekly for 6 weeks. Approximately 120 hrs after last dose all animals were sacrificed, liver samples collected and pancreatic islets isolated, as described herein (Example 9), for mRNA analysis. FOXO1 mRNA levels were quantified as described herein (Example 9) and mRNA levels expressed relative to housekeeping gene in each sample (RPLP0).

FOXO1 mRNA [2] = assay: FOXO1 mRNA in cultured mouse primary islets of Langerhans treated with ASO; format: cell-based; settings: for Islet FOXO1 mRNA levels relative to control (RPLP0): percent of untreated cells, 1 μM ASO 3 hrs every 24 hrs
Method: Pancreatic islets were isolated by collagenase digestion from pancreas collected from exsanguinated 12 to 15 weeks old female C57BL/6Crl mice. Islets were maintained in tissue culture until use. Islet were dissociated into single cells by shaking in media containing a low extracellular calcium concentration. 10 to 20 intact or dissociated islets were plated on plastic Petri Dishes and treated with 10 μM of antisense oligonucleotides for approximately 24 hrs. After the treatment period cells were harvested, RNA isolated, adjusted to total RNA content, as measured by RIBOGREEN®. MALAT1 or FOXO1 mRNA levels measured by quantitative real-time PCR. […] All data was normalized to the mRNA level of the house keeping gene (RPLP0) in the same sample, measured using a primer probe set with forward sequence […] NO: 71), reverse sequence […] NO: 72) and probe sequence […] NO: 73). Pancreatic islets were isolated by collagenase digestion from pancreas collected from euthanized 12 to 15 weeks old female B6.Cg-Lepob/J mice and maintained in tissue culture until use. 150 intact islets were placed in plastic Petri Dishes and treated with 1 μM of antisense oligonucleotides for 3 hrs every 24 hrs and harvested after approximately 24 hrs, 48 hrs or 96 hrs total treatment time respectively. After the treatment period, islets were harvested, and half of the islets were used to measure FOXO1 mRNA levels as described herein (Example 9). Half of the islets were homogenized in M-PER protein extraction reagent (Thermo Scientific) containing a protease inhibitor cocktail (Complete Mini and phosphoSTOP, Roche Diagnostics). The protein content of lysates were quantitated using BCA Assay Reagent (Pierce). […] For the anti-FoxO1 antibody, the secondary antibody was HRP-conjugated polyclonal goat anti-Rabbit P0448 (DAKO) and for the anti-α-tubulin antibody, the secondary antibody was HRP-conjugated polyclonal goat anti-mouse P0447 (DAKO). Enhanced chemiluminescence reagents (Pierce) were used for detection.

FOXO1 mRNA [3] = assay: FOXO1 mRNA in isolated islets and liver 72 hrs after single subcutaneous dose; format: in vivo, mouse; settings: single subcutaneous injection 0.01 or 1 μmol/kg
Method: (§1) Pancreatic islets were isolated by collagenase digestion from pancreas collected from exsanguinated 12 to 15 weeks old female C57BL/6Crl mice. Islets were maintained in tissue culture until use. Islet were dissociated into single cells by shaking in media containing a low extracellular calcium concentration. 10 to 20 intact or dissociated islets were plated on plastic Petri Dishes and treated with 10 μM of antisense oligonucleotides for approximately 24 hrs. After the treatment period cells were harvested, RNA isolated, adjusted to total RNA content, as measured by RIBOGREEN®. MALAT1 or FOXO1 mRNA levels measured by quantitative real-time PCR. Mouse Malat1 mRNA levels was measured using gene expression assay Mm01227912_s1 from Applied Biosystems, whereas mouse FOXO1 mRNA levels was measured using a primer probe set with forward sequence […] All data was normalized to the mRNA level of the house keeping gene (RPLP0) in the same sample, measured using a primer probe set with forward sequence […]
(§2) All animals were sacrificed 72 hrs after last dose.

MALAT-1 = assay: Dose-dependent reduction of MALAT-1 expression in LVX-GLP1R cells; format: cell-based, human; settings: approximately 24 hours; read-out: IC50 (MALAT-1 expression in GLP1R HEK cells)
Method: HEK cells stably expressing FLAG-tagged GLP1R were generated by infecting HEK 293 cells with FLAG-tagged GLP1R containing lentivirus produced by transfection of 293T cells with pLVX-IRES-Puro (Clontech Laboratories Inc., Mountainview, CA) harboring the FLAG-GLP1R insert. Infected cells were selected with puromycin (2 μg/ml) and then analyzed for receptor expression by western blot and immunofluorescence. Cultured GLP1R cells were plated at a density of 10,000 cells per well and treated with 0.3, 1, 3, 9, 27, 82, 247, 741, 2,222, 6,667, and 20,000 nM modified oligonucleotide for approximately 24 hours. After the treatment period, total RNA was prepared using an RNeasy mini kit (Qiagen, Valencia, CA, USA) and qRT-PCR was performed using the primer probe set RTS2739 (forward sequence: […] (SEQ ID NO: 74), reverse sequence: […] (SEQ ID NO: 75), probe sequence: […] (SEQ ID NO: 76). Briefly, ˜50 ng total RNA in 5 d water was mixed with 0.3 d primer probe sets containing forward and reverse primers (10 μM of each) and fluorescently labeled probe (3 μM), 0.3 W RT enzyme mix (Qiagen), 4.4 d RNase-free water, and 10 d of 2×PCR reaction buffer in a 20 d reaction. Reverse transcription was performed at 48° C. for 10 min, 40 cycles of PCR were conducted at 94° C. for 20 s, and 60° C. for 20 s within each cycle, using StepOne Plus RT-PCR system (Applied Biosystems, Phoenix, AZ, USA). The mRNA levels were normalized to the amount of total RNA present in each reaction as determined by Ribogreen assay (Life Technologies) and normalized to the saline control (100% expression).

MALAT1 [4] = assay: In situ hybridization of MALAT1 (QuantiGene ViewRNA) in mouse tissues after intravenous ASO; format: in vivo
From the text: NO: 63) or a GLP-1 conjugated MALAT1 ASO (ISIS 816385) described in Example 1 at concentrations of 1.8. 0.6, or 0.2 μmol/kg. […] MALAT1 expression was detected using the QuantiGene ViewRNA tissue assay (Affymetrix, cat. No. QVT0011). Species-specific MALAT1 probes were purchased from Affymetrix (cat. No. VB-11110-01/mouse; VF1-13963/monkey). In brief, mouse tissues were fixed in 10% neutral-buffered formalin and embedded into paraffin and sectioned into […]. After deparaffinization, the tissue slides were boiled in Affymetrix pretreatment solution for 10-30 minutes followed by treatment with protease at 40° C. for 10 to 40 minutes depending on tissue. The MALAT1 RNA probe was used at a 1:40 dilution and was incubated with sample at 40° C. for 120 minutes. After washing, the MALAT1 RNA/probe complex was hybridized with preamplifier, amplifier, and AP-oligonucleotides at 40° C. for 25, 15, and 15 minutes, respectively. After removal of free AP oligonucleotide by washing in PBS, the slide was incubated with Fast Red substrate at room temperature for 30 minutes. The tissue images were acquired using an Aperio scanner. Hung et al., 2013 Nuc Acid Ther. 369-78. To determine a dose response of a GLP-1 conjugated MALAT1 ASO (ISIS 816385) described in Example 1 on pancreatic MALAT1 expression, male C57BL/6 mice fed a chow diet received a single intravenous injection of ISIS 816385 or an unconjugated MALAT1 ASO (ISIS 556089) described above at concentrations of 0.2, 0.06, and 0.02 μmol/kg. MALAT1 expression was detected using the QuantiGene ViewRNA tissue assay described above.

MALAT1 [5] = assay: Effect of peptide composition and attachment point on peptide-conjugated ASO activity in LVX-GLP1R cells; format: cell-based, human; settings: 7 doses in a 4-fold dilution series, MALAT1 RNA
MALAT1 mRNA [6] = assay: Dose dependent antisense inhibition of MALAT1 in hGLP1R-HEK cells; format: cell-based, human; settings: approximately 24 hrs, qRT-PCR normalized to RPLP0
Method: The hGLP1R-HEK cell line was generated by expressing hGLP1R in Flp-IN™ 293 cells. Cultured hGLP1R-HEK cells were seeded at a density 30,000 cells per well in 96 well plates and saline, 100 nM or 10 μM of unconjugated parent antisense oligonucleotide ISIS 556089 targeted to MALAT1 described above or ISIS 776102 (nucleobase sequence: […]) (SEQ ID NO: 64) targeted to FOXO1, or corresponding GLP-1 peptide conjugated antisense oligonucleotides (ISIS 816385 targeted to MALAT1 described above or ION 913193 targeted to FOXO1 described above) for approximately 24 hrs. After the treatment period, cells were harvested, the mRNA isolated and adjusted to total RNA content as measured by nanadrop UV-Vis spectrophotometer. MALAT1 or FOXO1 mRNA levels were measured by quantitative real-time PCR and normalized to the mRNA levels of the house keeping gene (RPLP0) in the same samples. Human MALAT1 mRNA levels were measured using gene expression assays HS00273907 and FOXO1 mRNA levels were measured using assay Hs01054576 (Applied Biosystems). The mRNA level of the house keeping gene RPLP0 was measured using a primer probe set with forward sequence […] CAT […] (SEQ ID NO: 66), reverse sequence […] (SEQ ID NO: 67). […]
After the treatment period cells were harvested, mRNA isolated and MALAT1 mRNA levels measured by quantitative real-time PCR using the primer probe set as described herein (Example 7). […]

MALAT1 [7] = assay: MALAT1 expression in pancreas by in situ hybridization (RNAscope); format: in vivo, mouse; settings: 2 μmol/kg; subcutaneous or intravenous (ISIS 556089 subcutaneous only); 72 hrs after last dose
From the text: Female C57BL/6Crl mice were assigned to five treatment groups. […] All animals were sacrificed approximately 72 hrs after last dose, and pancreas harvested for ex vivo analysis of uptake of antisense oligonucleotides by immunohistochemistry.
Female C57BL/6Crl mice were assigned to five treatment groups as described herein (Example 11) All animals were sacrificed approximately 72 hrs after last dose, and pancreas harvested for ex vivo analysis of MALAT1 expression by in situ hybridization.
The in situ mRNA amplification and labelling process was performed on the Ventana Discovery ULTRA, an Automated ISH platform(Ventana Medical System, Inc) using the RNAscope® VS Assay based on Advanced Cell Diagnostics (ACD). Customized probes were obtained from ACD for the detection of MALAT1 mRNA, and various parameters were tested to optimize the novel RNAscope method for ISH. The signal was amplified using multiple steps, followed by labeled probes and detected using the RNAscope® 2.5 VS Reagent Kit-RED. Stained slides were analyzed under a standard bright-field microscope.

MALAT1 mRNA [8] = assay: MALAT1 mRNA in isolated islets and liver 72 hrs after single subcutaneous dose; format: in vivo, mouse; settings: single subcutaneous injection 0.01, 0.1 or 1 μmol/kg
Method: as §1, §2

MALAT1 mRNA [9] = assay: Dose dependent antisense inhibition of MALAT1 in WT HEK293 cells; format: cell-based, human; settings: approximately 24 hrs, qRT-PCR normalized to RPLP0
MALAT1 [10] = assay: MALAT1 in situ hybridization in beta islet cells after i.v. GLP-1 ASO conjugates with various linkers; format: in vivo, mouse; settings: male C57BL/6 mice; intravenous 0.6 μmol/kg/week once a week for three weeks; 72 hours after final injection

Substance	antisense inhibition of FOXO1 in islet of Langerhans (FOXO1 mRNA [1])	reduction in FOXO1 mRNA (FOXO1 mRNA [2]; mouse islets, 1 μM ASO, summary of Table 2)	Islet FOXO1 mRNA levels relative to control (RPLP0) (FOXO1 mRNA [2]; 24 hours) [%]	Islet FOXO1 mRNA levels relative to control (RPLP0) (FOXO1 mRNA [2]; 48 hours) [%]	Islet FOXO1 mRNA levels relative to control (RPLP0) (FOXO1 mRNA [2]; 96 hours) [%]	antisense inhibition of FOXO1 in islet of Langerhans (FOXO1 mRNA [3])	IC50 (MALAT-1) [µM]	effect in liver (MALAT1 in situ hybridization) (MALAT1 [4]; Study 2, single intravenous injection, any of the doses 0.2, 0.06, 0.02 μmol/kg)	MALAT1 expression in pancreatic beta islet cells (in situ hybridization) (MALAT1 [4]; male C57BL/6 mice, 2 intravenous injections of 1.8, 0.6 or 0.2 μmol/kg, 72 hours after final injection)	IC50 (MALAT1 [5]) [µM]	IC50 (MALAT1 mRNA [6]) [µM]	MALAT1 expression in the pancreatic islet of Langerhans (MALAT1 [7])	antisense inhibition of MALAT1 in islet of Langerhans (MALAT1 mRNA [8])	IC50 (MALAT1 mRNA [9]) [µM]	MALAT1 expression in beta islet cells compared to saline control (in situ hybridization) (MALAT1 [10])
ISIS 776102: unconjugated parent antisense oligonucleotide targeted to FOXO1, nucleobase sequence TCTTCTTAAAATACCC (SEQ ID NO: 64) (listed as DNA, further chemistry not given here) [reference compound]	No significant antisense inhibition	marginal reduction	82	86	92	No significant antisense inhibition	–	–	–	–	–	–	–	–	–
ISIS 556089: unconjugated parent 3-10-3 cEt ASO targeting murine MALAT1, nucleobase sequence GCATTCTAATAGCAGC (SEQ ID NO: 63) (sugars from the 5' end k3 d10 k3, backbone and methylation of C not given here) [reference compound]	–	–	–	–	–	–	3.97	No observable effect	not	3.82	0.87	not reduced	No significant antisense inhibition	0.74	not
